Test results as given in ChEMBL document CHEMBL3244265, “Preparation and biological actions of some symmetrically N,N-disubstituted dopamines” (J Med Chem, 1978).
The source made the active and inactive calls. No cut-off for these calls is given here.

Legend:
Rattus norvegicus [1] = assay: Induction of circling behaviour in sc dosed Sprague-Dawley rat assessed as duration of action; type: functional
Rattus norvegicus [2] = assay: Induction of stereotyped behaviour in sc dosed Sprague-Dawley rat assessed as duration of action; type: functional
Rattus norvegicus [3] = assay: Induction of hyperactivity in Sprague-Dawley rat at 40 mg/kg, sc; type: functional, organism-based; set-up: dose 40 mg/kg
Felis catus [4] = assay: Inhibition of 10 Hz electric current-induced cardioaccelerator nerve stimulation in iv dosed cat by cardiotachometer analysis; type: functional, organism-based
Felis catus [5] = assay: Inhibition of 2 Hz electric current-induced cardioaccelerator nerve stimulation in iv dosed cat by cardiotachometer analysis in presence of 0.2 mg/kg, iv haloperidol; type: functional, organism-based; set-up: dose 0.2 mg/kg; conditions: at 0.2 mg/kg
Felis catus [6] = assay: Hypotensive activity in iv dosed cat in presence of haloperidol; type: functional, organism-based
Rattus norvegicus [7] = assay: Induction of hyperactivity in Sprague-Dawley rat at 40 mg/kg, sc pretreated for 30 mins with 0.4 mg/kg haloperidol; type: functional, organism-based
Rattus norvegicus [8] = assay: Induction of hyperactivity in Sprague-Dawley rat at 40 mg/kg, sc pretreated for 18 hrs with 5 mg/kg reserpine and 6 hrs with 250 mg/kg alpha-methyl-p-tyrosine; type: functional, organism-based
Rattus norvegicus [9] = assay: Induction of stereotyped behaviour in sc dosed Sprague-Dawley rat pretreated for 30 mins with 0.4 mg/kg haloperidol; type: functional, organism-based; set-up: dose 0.4 mg/kg
Rattus norvegicus [10] = assay: Induction of hyperactivity in Sprague-Dawley rat at 40 mg/kg, sc pretreated for 30 mins with 5 mg/kg aceperone; type: functional, organism-based
Rattus norvegicus [11] = assay: Induction of circling behaviour in Sprague-Dawley rat administered into nucleus accumbens in presence of haloperidol; type: functional, organism-based
Rattus norvegicus [12] = assay: Effect on motor function in Sprague-Dawley rat administered into caudate putamen; type: functional, organism-based
Felis catus [13] = assay: Hypotensive activity in iv dosed cat; type: functional, organism-based
Rattus norvegicus [14] = assay: Induction of circling behaviour in sc dosed Sprague-Dawley rat in presence of 0.8 mg/kg haloperidol; type: functional, organism-based; set-up: dose 0.8 mg/kg
Rattus norvegicus [15] = assay: Induction of circling behaviour in sc dosed Sprague-Dawley rat assessed as onset of action; type: functional
Rattus norvegicus [16] = assay: Induction of stereotyped behaviour in sc dosed Sprague-Dawley rat assessed as onset of action; type: functional
Canis familiaris = assay: Induction of emesis in sc dosed dog; type: functional; conditions: Canis lupus familiaris
Rattus norvegicus [17] = assay: Induction of hyperactivity in Sprague-Dawley rat administered into nucleus accumbens in presence of 0.2 to 0.8 mg/kg haloperidol; type: functional, organism-based
Felis catus [18] = assay: Effect on heart rate in iv dosed cat; type: functional, organism-based
Rattus norvegicus [19] = assay: Induction of stereotyped behaviour in sc dosed Sprague-Dawley rat; type: functional, organism-based
Rattus norvegicus [20] = assay: Induction of stereotyped behaviour in Sprague-Dawley rat administered into caudate putamen in presence of 0.2 to 0.8 mg/kg haloperidol; type: functional, organism-based
Rattus norvegicus [21] = assay: Induction of hyperactivity in Sprague-Dawley rat at 40 mg/kg, sc pretreated for 30 mins with 5 mg/kg propranolol; type: functional, organism-based
Felis catus [22] = assay: Inhibition of 2 Hz electric current-induced cardioaccelerator nerve stimulation in iv dosed cat by cardiotachometer analysis in presence of 2 mg/kg, iv phentolamine; type: functional, organism-based; set-up: dose 2 mg/kg; conditions: at 2 mg/kg
Felis catus [23] = assay: Inhibition of 2 Hz electric current-induced cardioaccelerator nerve stimulation in iv dosed cat by cardiotachometer analysis; type: functional
Columba livia [24] = assay: Induction of pecking in im dosed pigeon; type: functional, organism-based
Rattus norvegicus [25] = assay: Induction of circling behaviour in Sprague-Dawley rat administered into caudate putamen in presence of haloperidol; type: functional, organism-based
Rattus norvegicus [26] = assay: Induction of stereotyped behaviour in Sprague-Dawley rat administered into nucleus accumbens in presence of 0.2 to 0.8 mg/kg haloperidol; type: functional, organism-based
Felis catus [27] = species: Felis catus; assay: Agonist activity at dopamine receptor in cat right atrium assessed as inhibition of cardiaccelerator nerve stimulation rate by cardiotachometer analysis; type: tissue-based; conditions: Cardiac atrium
Rattus norvegicus [28] = assay: Induction of hyperactivity in Sprague-Dawley rat administered into caudate putamen in presence of 0.2 to 0.8 mg/kg haloperidol; type: functional, organism-based
Columba livia [29] = assay: Antagonism of apomorphine-induced pecking in im dosed pigeon treated 15 mins prior to apomorphine challenge; type: functional
Rattus norvegicus [30] = assay: Induction of circling behaviour in sc dosed Sprague-Dawley rat assessed as reversal of spontaneous ipsilateral to contralateral circling response; type: functional, organism-based
Rattus norvegicus [31] = assay: Induction of circling behaviour in sc dosed Sprague-Dawley rat in presence of 5 mg/kg propranolol; type: functional, organism-based; set-up: dose 5 mg/kg
Columba livia [32] = assay: Induction of pecking in pigeon at 1.62 umol/kg, im; type: functional, organism-based
Rattus norvegicus [33] = assay: Induction of circling behaviour in sc dosed Sprague-Dawley rat in presence of 5 mg/kg aceperone; type: functional, organism-based; set-up: dose 5 mg/kg

CCCN(CCC)CCc1ccc(O)c(O)c1
Time (Rattus norvegicus [1]): 5 min | Time (Rattus norvegicus [2]): 10 min | Activity (Rattus norvegicus [3]): Active | inhibition (Felis catus [4]): inactive | inhibition (Felis catus [5]): inactive | Activity (Felis catus [6]): inactive | Activity (Rattus norvegicus [7]): inactive | Activity (Rattus norvegicus [8]): Active | Activity (Rattus norvegicus [9]): inactive | Activity (Rattus norvegicus [10]): Active | Activity (Rattus norvegicus [11]): inactive | Activity (Rattus norvegicus [12]): inactive | Activity (Felis catus [13]): Active | Activity (Rattus norvegicus [14]): inactive | Time (Rattus norvegicus [15]): 3 min | Time (Rattus norvegicus [16]): <5 min | ED50 (Canis familiaris): 1 mg/kg | Activity (Rattus norvegicus [17]): inactive | Activity (Felis catus [18]): inactive | Activity (Rattus norvegicus [19]): Dose-dependent effect | Activity (Rattus norvegicus [20]): inactive | Activity (Rattus norvegicus [21]): Active | inhibition (Felis catus [22]): Active | ED50 (Felis catus [23]): 0.068 µmol/kg | Activity (Columba livia [24]): inactive | Activity (Rattus norvegicus [25]): inactive | Activity (Rattus norvegicus [26]): inactive | ED50 (Felis catus [27]): 0.42 µM | Activity (Rattus norvegicus [28]): inactive | ED50 (Columba livia [29]): 56 µmol/kg

CN1CCc2cccc3c2[C@H]1Cc1ccc(O)c(O)c1-3.CN1CCc2cccc3c2[C@H]1Cc1ccc(O)c(O)c1-3.Cl.Cl.O [APOMORPHINE HYDROCHLORIDE]
Time (Rattus norvegicus [1]): 40 min | Time (Rattus norvegicus [2]): 20 min | inhibition (Felis catus [5]): inactive | Activity (Rattus norvegicus [14]): inactive | Time (Rattus norvegicus [15]): 3 min | Time (Rattus norvegicus [16]): <5 min | ED50 (Canis familiaris): 0.13 µmol/kg | Activity (Rattus norvegicus [19]): Dose-dependent effect | ED50 (Felis catus [23]): 0.1 µmol/kg | Activity (Rattus norvegicus [30]): Active | Activity (Rattus norvegicus [31]): Active | Activity (Columba livia [32]): Active | Activity (Rattus norvegicus [33]): Active | ED50 (Felis catus [27]): 0.043 µM
